From patent US6355799B1, “Substituted benzene compounds, process for their preparation, and herbicidal and defoliant compositions containing them” (ISK Americas Incorporated, priority 1997, dated 2002)

What was measured:
Format in all cases: in vivo
[1] = system: lambsquarters (Chenopodium album, CHEAL); test: Pre-emerge test, greenhouse herbicide activity screening; details: pre-emerge, rated 14 days after application, 0 = no damage, 100 = complete death
In short: (§1)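 Fourteen days after spraying, crop and weed injury was graded visually from 0, no effect, to 100, every plant dead. Test substances were dissolved in acetone and applied at 15–1000 g ai/ha with a flat-fan nozzle. Application was either pre-emergence, one day after sowing, or post-emergence at the 2–3 leaf stage.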

[2] = system: green foxtail (Setaria viridis, SETVI); test: as above; details: pre-emerge, rated 14 days after application, 0 = no damage, 100 = complete death
In short: as §1

[3] = system: johnsongrass (Sorghum halepense, SORHA); test: as above; details: pre-emerge, rated 14 days after application, 0 = no damage, 100 = complete death
In short: as §1

[4] = system: velvetleaf (Abutilon theophrasti, ABUTH); test: as above; details: pre-emerge, rated 14 days after application, 0 = no damage, 100 = complete death
In short: as §1

[5] = system: ivyleaf morningglory (Ipomoea hederacea, IPOHE); test: as above; details: pre-emerge, rated 14 days after application, 0 = no damage, 100 = complete death
In short: as §1

[6] = system: large crabgrass (Digitaria sanguinalis, DIGSA); test: as above; details: pre-emerge, rated 14 days after application, 0 = no damage, 100 = complete death
In short: as §1

[7] = system: sicklepod (Cassia obtusifolia, CASOB); test: as above; details: pre-emerge, rated 14 days after application, 0 = no damage, 100 = complete death
In short: as §1

[8] = system: barnyardgrass (Echinochloa crus-galli, ECHCG); test: as above; details: pre-emerge, rated 14 days after application, 0 = no damage, 100 = complete death
In short: as §1

[9] = system: upland rice (Oryza sp., var. Tebonnet, RICE); test: Pre-emerge test, crop safety; details: pre-emerge, rated 14 days after application, 0 = no damage, 100 = complete death
In short: (§2)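 Compounds in acetone were track-sprayed at 15-1000 g ai/ha (187 l/ha) on sandy loam pots: pre-emerge one day after seeding, post-emerge at 2-3 leaf stage with 0.25% v/v non-ionic surfactant. Phytotoxicity was rated 14 days later on a 0 (no damage) to 100 (complete death) scale.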

[10] = system: field corn (Zea mays L., var. Dekalb 535, CORN); test: Pre-emerge test, crop safety; details: pre-emerge, rated 14 days after application, 0 = no damage, 100 = complete death
In short: as §2

[11] = system: redroot pigweed (Amaranthus retroflexus, AMARE); test: Pre-emerge test, greenhouse herbicide activity screening; details: pre-emerge, rated 14 days after application, 0 = no damage, 100 = complete death
In short: as §2

[12] = system: upland rice (Oryza sp., var. Tebonnet, RICE); test: Post-emerge test, crop safety; details: phytotoxicity rating 0-100 (0 no damage, 100 complete death), 14 days after application
In short: as §1

[13] = system: field corn (Zea mays L., var. Dekalb 535, CORN); test: Post-emerge test, crop safety; details: phytotoxicity rating 0-100 (0 no damage, 100 complete death), 14 days after application
In short: as §1

[14] = system: lambsquarters (Chenopodium album, CHEAL); test: Post-emerge test, greenhouse herbicide activity screening; details: phytotoxicity rating 0-100 (0 no damage, 100 complete death), 14 days after application
In short: as §1

[15] = system: green foxtail (Setaria viridis, SETVI); test: as above; details: phytotoxicity rating 0-100 (0 no damage, 100 complete death), 14 days after application
In short: as §1

[16] = system: johnsongrass (Sorghum halepense, SORHA); test: as above; details: phytotoxicity rating 0-100 (0 no damage, 100 complete death), 14 days after application
In short: as §1

[17] = system: velvetleaf (Abutilon theophrasti, ABUTH); test: as above; details: phytotoxicity rating 0-100 (0 no damage, 100 complete death), 14 days after application
In short: as §1

[18] = system: ivyleaf morningglory (Ipomoea hederacea, IPOHE); test: as above; details: phytotoxicity rating 0-100 (0 no damage, 100 complete death), 14 days after application
In short: as §1

[19] = system: common ragweed (Ambrosia artemisizfolia L., AMBEL); test: as above; details: phytotoxicity rating 0-100 (0 no damage, 100 complete death), 14 days after application
In short: as §1

[20] = system: redroot pigweed (Amaranthus retroflexus, AMARE); test: as above; details: phytotoxicity rating 0-100 (0 no damage, 100 complete death), 14 days after application
In short: as §1

[21] = system: large crabgrass (Digitaria sanguinalis, DIGSA); test: as above; details: phytotoxicity rating 0-100 (0 no damage, 100 complete death), 14 days after application
In short: as §1

[22] = system: sicklepod (Cassia obtusifolia, CASOB); test: as above; details: phytotoxicity rating 0-100 (0 no damage, 100 complete death), 14 days after application
In short: as §1

[23] = system: barnyardgrass (Echinochloa crus-galli, ECHCG); test: as above; details: phytotoxicity rating 0-100 (0 no damage, 100 complete death), 14 days after application
In short: as §1

Compound: CCOC(=O)C(C)Nc1c(OC)c(Cl)cc(F)c1-n1c(=O)cc(C(F)(F)F)n(C)c1=O (centres unmarked) [Compound 1-55]
- Pre-emerge Herbicidal Activity CHEAL (phytotoxicity rating, scale 0-100) ([1]; 63 g ai/ha): 95
- Pre-emerge Herbicidal Activity CHEAL (phytotoxicity rating, scale 0-100) ([1]; 250 g ai/ha): 95
- Pre-emerge Herbicidal Activity SETVI (phytotoxicity rating, scale 0-100) ([2]; 63 g ai/ha): 0
- Pre-emerge Herbicidal Activity SETVI (phytotoxicity rating, scale 0-100) ([2]; 250 g ai/ha): 0
- Pre-emerge Herbicidal Activity SORHA (phytotoxicity rating, scale 0-100) ([3]; 63 g ai/ha): 20
- Pre-emerge Herbicidal Activity SORHA (phytotoxicity rating, scale 0-100) ([3]; 250 g ai/ha): 20
- Pre-emerge Herbicidal Activity ABUTH (phytotoxicity rating, scale 0-100) ([4]; 63 g ai/ha): 90
- Pre-emerge Herbicidal Activity ABUTH (phytotoxicity rating, scale 0-100) ([4]; 250 g ai/ha): 90
- Pre-emerge Herbicidal Activity IPOHE (phytotoxicity rating, scale 0-100) ([5]; 63 g ai/ha): 0
- Pre-emerge Herbicidal Activity IPOHE (phytotoxicity rating, scale 0-100) ([5]; 250 g ai/ha): 0
- Pre-emerge Herbicidal Activity DIGSA (phytotoxicity rating, scale 0-100) ([6]; 63 g ai/ha): 50
- Pre-emerge Herbicidal Activity DIGSA (phytotoxicity rating, scale 0-100) ([6]; 250 g ai/ha): 50
- Pre-emerge Herbicidal Activity CASOB (phytotoxicity rating, scale 0-100) ([7]; 63 g ai/ha): 0
- Pre-emerge Herbicidal Activity CASOB (phytotoxicity rating, scale 0-100) ([7]; 250 g ai/ha): 0
- Pre-emerge Herbicidal Activity ECHCG (phytotoxicity rating, scale 0-100) ([8]; 63 g ai/ha): 10
- Pre-emerge Herbicidal Activity ECHCG (phytotoxicity rating, scale 0-100) ([8]; 250 g ai/ha): 10
- Pre-emerge crop damage RICE (phytotoxicity rating, scale 0-100) ([9]; 63 g ai/ha): 0
- Pre-emerge crop damage RICE (phytotoxicity rating, scale 0-100) ([9]; 250 g ai/ha): 0
- Pre-emerge crop damage CORN (phytotoxicity rating, scale 0-100) ([10]; 63 g ai/ha): 10
- Pre-emerge crop damage CORN (phytotoxicity rating, scale 0-100) ([10]; 250 g ai/ha): 10
- Pre-emerge Herbicidal Activity AMARE (phytotoxicity rating, scale 0-100) ([11]; 63 g ai/ha): 70
- Pre-emerge Herbicidal Activity AMARE (phytotoxicity rating, scale 0-100) ([11]; 250 g ai/ha): 70
- Post-emerge Herbicidal Activity RICE (crop damage) ([12]; 63 g ai/ha): 0
- Post-emerge Herbicidal Activity RICE (crop damage) ([12]; 250 g ai/ha): 0
- Post-emerge Herbicidal Activity CORN (crop damage) ([13]; 63 g ai/ha): 0
- Post-emerge Herbicidal Activity CORN (crop damage) ([13]; 250 g ai/ha): 10
- Post-emerge Herbicidal Activity CHEAL ([14]; 63 g ai/ha): 0
- Post-emerge Herbicidal Activity CHEAL ([14]; 250 g ai/ha): 20
- Post-emerge Herbicidal Activity SETVI ([15]; 63 g ai/ha): 0
- Post-emerge Herbicidal Activity SETVI ([15]; 250 g ai/ha): 40
- Post-emerge Herbicidal Activity SORHA ([16]; 63 g ai/ha): 0
- Post-emerge Herbicidal Activity SORHA ([16]; 250 g ai/ha): 0
- Post-emerge Herbicidal Activity ABUTH ([17]; 63 g ai/ha): 80
- Post-emerge Herbicidal Activity ABUTH ([17]; 250 g ai/ha): 90
- Post-emerge Herbicidal Activity IPOHE ([18]; 63 g ai/ha): 30
- Post-emerge Herbicidal Activity IPOHE ([18]; 250 g ai/ha): 95
- Post-emerge Herbicidal Activity AMBEL ([19]; 63 g ai/ha): 70
- Post-emerge Herbicidal Activity AMBEL ([19]; 250 g ai/ha): 50
- Post-emerge Herbicidal Activity AMARE ([20]; 63 g ai/ha): 10
- Post-emerge Herbicidal Activity AMARE ([20]; 250 g ai/ha): 10
- Post-emerge Herbicidal Activity DIGSA ([21]; 63 g ai/ha): 0
- Post-emerge Herbicidal Activity DIGSA ([21]; 250 g ai/ha): 30
- Post-emerge Herbicidal Activity CASOB ([22]; 63 g ai/ha): 10
- Post-emerge Herbicidal Activity CASOB ([22]; 250 g ai/ha): 20
- Post-emerge Herbicidal Activity ECHCG ([23]; 63 g ai/ha): 0
- Post-emerge Herbicidal Activity ECHCG ([23]; 250 g ai/ha): 0

Compound: CC(C)Oc1c(Cl)cc(F)c(-n2c(=O)cc(C(F)(F)F)n(C)c2=O)c1N [Compound 1-63]
- Pre-emerge Herbicidal Activity CHEAL (phytotoxicity rating, scale 0-100) ([1]; 63 g ai/ha): 100
- Pre-emerge Herbicidal Activity CHEAL (phytotoxicity rating, scale 0-100) ([1]; 250 g ai/ha): 100
- Pre-emerge Herbicidal Activity SETVI (phytotoxicity rating, scale 0-100) ([2]; 63 g ai/ha): 95
- Pre-emerge Herbicidal Activity SETVI (phytotoxicity rating, scale 0-100) ([2]; 250 g ai/ha): 100
- Pre-emerge Herbicidal Activity SORHA (phytotoxicity rating, scale 0-100) ([3]; 63 g ai/ha): 50
- Pre-emerge Herbicidal Activity SORHA (phytotoxicity rating, scale 0-100) ([3]; 250 g ai/ha): 99
- Pre-emerge Herbicidal Activity ABUTH (phytotoxicity rating, scale 0-100) ([4]; 63 g ai/ha): 100
- Pre-emerge Herbicidal Activity ABUTH (phytotoxicity rating, scale 0-100) ([4]; 250 g ai/ha): 100
- Pre-emerge Herbicidal Activity IPOHE (phytotoxicity rating, scale 0-100) ([5]; 63 g ai/ha): 20
- Pre-emerge Herbicidal Activity IPOHE (phytotoxicity rating, scale 0-100) ([5]; 250 g ai/ha): 95
- Pre-emerge Herbicidal Activity DIGSA (phytotoxicity rating, scale 0-100) ([6]; 63 g ai/ha): 80
- Pre-emerge Herbicidal Activity DIGSA (phytotoxicity rating, scale 0-100) ([6]; 250 g ai/ha): 100
- Pre-emerge Herbicidal Activity CASOB (phytotoxicity rating, scale 0-100) ([7]; 63 g ai/ha): 20
- Pre-emerge Herbicidal Activity CASOB (phytotoxicity rating, scale 0-100) ([7]; 250 g ai/ha): 90
- Pre-emerge Herbicidal Activity ECHCG (phytotoxicity rating, scale 0-100) ([8]; 63 g ai/ha): 40
- Pre-emerge Herbicidal Activity ECHCG (phytotoxicity rating, scale 0-100) ([8]; 250 g ai/ha): 100
- Pre-emerge crop damage RICE (phytotoxicity rating, scale 0-100) ([9]; 63 g ai/ha): 80
- Pre-emerge crop damage RICE (phytotoxicity rating, scale 0-100) ([9]; 250 g ai/ha): 95
- Pre-emerge crop damage CORN (phytotoxicity rating, scale 0-100) ([10]; 63 g ai/ha): 10
- Pre-emerge crop damage CORN (phytotoxicity rating, scale 0-100) ([10]; 250 g ai/ha): 90
- Pre-emerge Herbicidal Activity AMARE (phytotoxicity rating, scale 0-100) ([11]; 63 g ai/ha): 100
- Pre-emerge Herbicidal Activity AMARE (phytotoxicity rating, scale 0-100) ([11]; 250 g ai/ha): 100
- Post-emerge Herbicidal Activity RICE (crop damage) ([12]; 63 g ai/ha): 10
- Post-emerge Herbicidal Activity RICE (crop damage) ([12]; 250 g ai/ha): 40
- Post-emerge Herbicidal Activity CORN (crop damage) ([13]; 63 g ai/ha): 0
- Post-emerge Herbicidal Activity CORN (crop damage) ([13]; 250 g ai/ha): 0
- Post-emerge Herbicidal Activity CHEAL ([14]; 63 g ai/ha): 20
- Post-emerge Herbicidal Activity CHEAL ([14]; 250 g ai/ha): 50
- Post-emerge Herbicidal Activity SETVI ([15]; 63 g ai/ha): 0
- Post-emerge Herbicidal Activity SETVI ([15]; 250 g ai/ha): 20
- Post-emerge Herbicidal Activity SORHA ([16]; 63 g ai/ha): 0
- Post-emerge Herbicidal Activity SORHA ([16]; 250 g ai/ha): 0
- Post-emerge Herbicidal Activity ABUTH ([17]; 63 g ai/ha): 70
- Post-emerge Herbicidal Activity ABUTH ([17]; 250 g ai/ha): 100
- Post-emerge Herbicidal Activity IPOHE ([18]; 63 g ai/ha): 95
- Post-emerge Herbicidal Activity IPOHE ([18]; 250 g ai/ha): 90
- Post-emerge Herbicidal Activity AMBEL ([19]; 63 g ai/ha): 0
- Post-emerge Herbicidal Activity AMBEL ([19]; 250 g ai/ha): 50
- Post-emerge Herbicidal Activity AMARE ([20]; 63 g ai/ha): 10
- Post-emerge Herbicidal Activity AMARE ([20]; 250 g ai/ha): 10
- Post-emerge Herbicidal Activity DIGSA ([21]; 63 g ai/ha): 0
- Post-emerge Herbicidal Activity DIGSA ([21]; 250 g ai/ha): 0
- Post-emerge Herbicidal Activity CASOB ([22]; 63 g ai/ha): 0
- Post-emerge Herbicidal Activity CASOB ([22]; 250 g ai/ha): 0
- Post-emerge Herbicidal Activity ECHCG ([23]; 63 g ai/ha): 0
- Post-emerge Herbicidal Activity ECHCG ([23]; 250 g ai/ha): 30
